Assays:
[1] = tested on: A431cells (human epidermoid carcinoma); test: In vitro tumor cell proliferation assay (Cell Titer-Glo luminescent cell viability), A431 cells; type: cell-based; details: A-431, 72 h, 72 hours drug exposure, 10% Fetal Bovine Serum, ATP luminescence readout, read-out: IC50 (50% inhibition of cell proliferation)
Method in brief: (§1)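 ATP luminescence (CellTiter-Glo) measured proliferation after 72 h compound exposure at 37 °C, giving IC50 values. Serial dilutions spanning 64 pM–100 μM in 0.1% DMSO were applied one day after plating 2.5×10^3 cells/well in RPMI plus 10% fetal bovine serum.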

[2] = tested on: BT474 (human breast carcinoma); test: In vitro tumor cell proliferation assay (Cell Titer-Glo luminescent cell viability), BT474 cells; type: cell-based; details: BT-474, 72 hours drug exposure, 10% Fetal Bovine Serum, ATP luminescence readout, read-out: IC50 (50% inhibition of cell proliferation)
Method in brief: as §1

SMILES	IC50 [1] [µM]	IC50 [2] [µM]
COCCN(C)CCC1CCc2c(sc3ncnc(Nc4ccc(OCc5cccc(F)c5)c(Cl)c4)c23)C1 (stereo not drawn) [Example 159, N-{3-chloro-4-[(3-fluorobenzyl)oxy]phenyl}-7-{2-[(2-methoxyethyl)(methyl)amino]ethyl}-5,6,7,8-tetrahydro[1]benzothieno[2,3-d]pyrimidin-4-amine]	< 5	< 5
CS(=O)(=O)CCNC(=O)C1CCc2c(sc3ncnc(Nc4ccc(F)c(Cl)c4)c23)C1 (stereo not drawn) [Example 52, 4-[(3-chloro-4-fluorophenyl)amino]-N-[2-(methylsulfonyl)ethyl]-5,6,7,8-tetrahydro[1]benzothieno[2,3-d]pyrimidine-7-carboxamide]	< 50	< 50
COCCC1CCc2c(sc3ncnc(Nc4ccc(F)c(Cl)c4)c23)C1 (stereo not drawn) [Example 101, N-(3-chloro-4-fluorophenyl)-7-(2-methoxyethyl)-5,6,7,8-tetrahydro[1]benzothieno[2,3-d]pyrimidin-4-amine]	< 50	< 5
CN1CCN(CCC2CCc3c(sc4ncnc(Nc5ccc(F)c(Cl)c5)c34)C2)CC1 (stereo not drawn) [Example 59, N-(3-chloro-4-fluorophenyl)-7-[2-(4-methyl-1-piperazinyl)ethyl]-5,6,7,8-tetrahydro[1]benzothieno[2,3-d]pyrimidin-4-amine]	< 5	< 5
Clc1cc(Nc2ncnc3sc4c(c23)CCC(CCn2ccnc2)C4)ccc1OCc1ccccn1 (stereo not drawn) [Example 182, N-[3-chloro-4-(pyridin-2-ylmethoxy)phenyl]-7-[2-(1H-imidazol-1-yl)ethyl]-5,6,7,8-tetrahydro[1]benzothieno[2,3-d]pyrimidin-4-amine]	< 50	< 5
O=C(CC1CCc2c(sc3ncnc(Nc4ccc(F)c(Cl)c4)c23)C1)N1CCOCC1 (stereo not drawn) [Example 61, N-(3-chloro-4-fluorophenyl)-7-[2-(4-morpholinyl)-2-oxoethyl]-5,6,7,8-tetrahydro[1]benzothieno[2,3-d]pyrimidin-4-amine]	< 5	< 50
OCCC1CCc2c(sc3ncnc(Nc4ccc(OCc5cccc(F)c5)c(Cl)c4)c23)C1 (stereo not drawn) [Example 137, 2-{4-[3-Chloro-4-(3-fluoro-benzyloxy)-phenylamino]-5,6,7,8-tetrahydro-benzo[4,5]thieno[2,3-d]pyrimidin-7-yl}-ethanol]	< 50	< 5
Fc1ccc(Nc2ncnc3sc4c(c23)CCC(CCN2CCN(Cc3ccncc3)CC2)C4)cc1Cl (stereo not drawn) [Example 99, N-(3-chloro-4-fluorophenyl)-7-{2-[4-(4-pyridinylmethyl)-1-piperazinyl]ethyl}-5,6,7,8-tetrahydro[1]benzothieno[2,3-d]pyrimidin-4-amine]	< 50	< 5
CN1CCN(CCC2CCc3c(sc4ncnc(Nc5ccc(OCc6ccc(F)cc6)c(Cl)c5)c34)C2)CC1 (stereo not drawn) [Example 154, N-{3-chloro-4-[(4-fluorobenzyl)oxy]phenyl}-7-[2-(4-methylpiperazin-1-yl)ethyl]-5,6,7,8-tetrahydro[1]benzothieno[2,3-d]pyrimidin-4-amine]	< 5	< 5
CN(C)[C@@H]1CCN(CCC2CCc3c(sc4ncnc(Nc5ccc(OCc6ccccn6)c(Cl)c5)c34)C2)C1 (stereo partly drawn) [Example 181, N-[3-chloro-4-(pyridin-2-ylmethoxy)phenyl]-7-{2-[(3R)-3-(dimethylamino)pyrrolidin-1-yl]ethyl}-5,6,7,8-tetrahydro[1]benzothieno[2,3-d]pyrimidin-4-amine]	< 50	< 5
Fc1cccc(COc2ccc(Nc3ncnc4sc5c(c34)CCC(CCN3CCOCC3)C5)cc2Cl)c1 (stereo not drawn) [Example 139, N-{3-chloro-4-[(3-fluorobenzyl)oxy]phenyl}-7-(2-morpholin-4-ylethyl)-5,6,7,8-tetrahydro[1]benzothieno[2,3-d]pyrimidin-4-amine]	< 5	< 5
CN1CCN(CCC2CCc3c(sc4ncnc(Nc5ccc(OCc6ccccn6)c(Cl)c5)c34)C2)CC1 (stereo not drawn) [Example 183, N-[3-chloro-4-(pyridin-2-ylmethoxy)phenyl]-7-[2-(4-methylpiperazin-1-yl)ethyl]-5,6,7,8-tetrahydro[1]benzothieno[2,3-d]pyrimidin-4-amine]	< 5	< 5
COCCN(C)CCC1CCc2c(sc3ncnc(Nc4cccc(Br)c4)c23)C1 (stereo not drawn) [Example 87, N-(3-bromophenyl)-7-{2-[(2-methoxyethyl)(methyl)amino]ethyl}-5,6,7,8-tetrahydro[1]benzothieno[2,3-d]pyrimidin-4-amine]	< 5	< 5
Fc1ccc(Nc2ncnc3sc4c(c23)CCC(CCN2CCOCC2)C4)cc1Cl (stereo not drawn) [Example 54, N-(3-chloro-4-fluorophenyl)-7-[2-(4-morpholinyl)ethyl]-5,6,7,8-tetrahydro[1]benzothieno[2,3-d]pyrimidin-4-amine]	< 5	< 5

The next lines start with the values.

IC50 [1] [µM]	IC50 [2] [µM]	SMILES
< 5	< 5	COCCNCCC1CCc2c(sc3ncnc(Nc4ccc5c(cnn5Cc5ccccc5)c4)c23)C1 (stereo not drawn) [Example 205, N-(1-benzyl-1H-indazol-5-yl)-7-{2-[(2-methoxyethyl)amino]ethyl}-5,6,7,8-tetrahydro[1]benzothieno[2,3-d]pyrimidin-4-amine]
< 5	< 5	CN(C)CCC1CCc2c(sc3ncnc(Nc4ccc(OCc5ccccn5)c(Cl)c4)c23)C1 (stereo not drawn) [Example 185, N-[3-chloro-4-(pyridin-2-ylmethoxy)phenyl]-7-[2-(dimethylamino)ethyl]-5,6,7,8-tetrahydro[1]benzothieno[2,3-d]pyrimidin-4-amine]
< 50	< 5	OC1CCN(CCC2CCc3c(sc4ncnc(Nc5ccc6c(cnn6Cc6ccccc6)c5)c34)C2)C1 (stereo not drawn) [Example 237, 1-(2-{4-[(1-benzyl-1H-indazol-5-yl)amino]-5,6,7,8-tetrahydro[1]benzothieno[2,3-d]pyrimidin-7-yl}ethyl)pyrrolidin-3-ol]
< 50	< 5	Cc1ccc(Oc2ccc(Nc3ncnc4sc5c(c34)CCC(CCNCCN3CCOCC3)C5)cc2C)cn1 (stereo not drawn) [Example 220, N-{3-methyl-4-[(6-methylpyridin-3-yl)oxy]phenyl}-7-{2-[(2-morpholin-4-ylethyl)amino]ethyl}-5,6,7,8-tetrahydro[1]benzothieno[2,3-d]pyrimidin-4-amine]
< 50	< 5	Cc1ccc(Oc2ccc(Nc3ncnc4sc5c(c34)CCC(CCN3CCCC3C)C5)cc2C)cn1 (stereo not drawn) [Example 234, N-{3-methyl-4-[(6-methylpyridin-3-yl)oxy]phenyl}-7-[2-(2-methylpyrrolidin-1-yl)ethyl]-5,6,7,8-tetrahydro[1]benzothieno[2,3-d]pyrimidin-4-amine]
< 50	< 5	COCCN1CCN(CCC2CCc3c(sc4ncnc(Nc5ccc(OCc6ccccn6)c(Cl)c5)c34)C2)CC1 (stereo not drawn) [Example 188, N-[3-chloro-4-(pyridin-2-ylmethoxy)phenyl]-7-{2-[4-(2-methoxyethyl)piperazin-1-yl]ethyl}-5,6,7,8-tetrahydro[1]benzothieno[2,3-d]pyrimidin-4-amine]
< 50	< 5	Cc1ccc(Oc2ccc(Nc3ncnc4sc5c(c34)CCC(CCOS(C)(=O)=O)C5)cc2C)cn1 (stereo not drawn) [Example 215, 2-[4-({3-methyl-4-[(6-methylpyridin-3-yl)oxy]phenyl}amino)-5,6,7,8-tetrahydro[1]benzothieno[2,3-d]pyrimidin-7-yl]ethyl methanesulfonate]
